Experimental data as given in PubChem BioAssay (NCI).
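96-well plates; 48 h exposure; 5 concentrations. Endpoints by linear interpolation between flanking doses. Not reached: highest tested concentration assigned. At the GI50, growth is halved. TGI denotes the concentration required for complete inhibition of growth.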

Experiments:
Experiment in all cases: NCI anticancer screen, dose series, 48 h
[1] = system: 786-0 renal
[2] = system: A498 renal
[3] = system: A549 NSCLC
[4] = system: ACHN renal
[5] = system: BT-549 breast
[6] = system: CAKI-1 renal
[7] = system: CCRF-CEM leukemia
[8] = system: COLO 205 colon
[9] = system: DU-145 prostate
[10] = system: EKVX NSCLC
[11] = system: HCC-2998 colon
[12] = system: HCT-116 colon
[13] = system: HCT-15 colon
[14] = system: HL-60(TB) leukemia
[15] = system: HOP-62 NSCLC
[16] = system: HOP-92 NSCLC
[17] = system: HS 578T breast
[18] = system: HT29 colon
[19] = system: IGROV1 ovarian
[20] = system: K-562 leukemia
[21] = system: KM12 colon
[22] = system: LOX IMVI melanoma
[23] = system: M14 melanoma
[24] = system: MALME-3M melanoma
[25] = system: MCF7 breast
[26] = system: MDA-MB-231 breast
[27] = system: MDA-MB-435
[28] = system: MOLT-4 leukemia
[29] = system: NCI-H226 lung
[30] = system: NCI-H23 lung
[31] = system: NCI-H460 lung
[32] = system: NCI-H522 lung
[33] = system: NCI/ADR-RES ovarian
[34] = system: OVCAR-3 ovarian
[35] = system: OVCAR-4 ovarian
[36] = system: OVCAR-5 ovarian
[37] = system: OVCAR-8 ovarian
[38] = system: PC-3 prostate
[39] = system: RPMI-8226 leukemia
[40] = system: RXF 393 renal
[41] = system: SF-268 CNS
[42] = system: SF-295 CNS
[43] = system: SF-539 CNS
[44] = system: SK-MEL-2 melanoma
[45] = system: SK-MEL-28 melanoma
[46] = system: SK-MEL-5 melanoma
[47] = system: SK-OV-3 ovarian
[48] = system: SN12C renal
[49] = system: SNB-19 CNS
[50] = system: SNB-75 CNS
[51] = system: SR leukemia
[52] = system: SW-620 colon
[53] = system: T-47D breast
[54] = system: TK-10 renal
[55] = system: U251 CNS
[56] = system: UACC-257 melanoma
[57] = system: UACC-62 melanoma
[58] = system: UO-31 renal

With O=C(/C=C/c1ccc(Cl)cc1)c1ccc(Nc2nc(Nc3ccc(F)cc3)nc(Nc3ccc(F)cc3)n2)cc1 the GI50 [1] was 23.1 µM, the TGI [1] was 56.3 µM and the GI50 [2] was 34.6 µM. The TGI [2] was 98.5 µM, the GI50 [3] was 49.9 µM and the TGI [3] was > 100 µM. For the same molecule, the GI50 [4] was 72 µM, the TGI [4] was > 100 µM and the GI50 [5] was 19 µM. The TGI [5] was 36.9 µM, the GI50 [6] was 80.4 µM and the TGI [6] was > 100 µM. For the same molecule, the GI50 [7] was 31.9 µM, the TGI [7] was > 100 µM and the GI50 [8] was 16.7 µM. For the same molecule, the TGI [8] was 45.4 µM, the GI50 [9] was > 100 µM and the TGI [9] was > 100 µM. For the same molecule, the GI50 [10] was 95.7 µM, the TGI [10] was > 100 µM and the GI50 [11] was 17.7 µM. The TGI [11] was 41.2 µM, the GI50 [12] was 12.2 µM and the TGI [12] was 25.5 µM. For the same molecule, the GI50 [13] was 53.7 µM, the TGI [13] was > 100 µM and the GI50 [14] was 39 µM. For the same molecule, the TGI [14] was > 100 µM, the GI50 [15] was > 100 µM and the TGI [15] was > 100 µM. The GI50 [16] was 26.6 µM, the TGI [16] was > 100 µM and the GI50 [17] was 52.3 µM. For the same molecule, the TGI [17] was > 100 µM, the GI50 [18] was 35.1 µM and the TGI [18] was > 100 µM. For the same molecule, the GI50 [19] was 13.7 µM, the TGI [19] was 30.9 µM and the GI50 [20] was 53.1 µM. For the same molecule, the TGI [20] was > 100 µM, the GI50 [21] was 25.7 µM and the TGI [21] was > 100 µM. The GI50 [22] was 27.4 µM, the TGI [22] was 70.2 µM and the GI50 [23] was 20.7 µM. The TGI [23] was 42 µM, the GI50 [24] was > 100 µM and the TGI [24] was > 100 µM. For the same molecule, the GI50 [25] was 9.45 µM, the TGI [25] was > 100 µM and the GI50 [26] was > 100 µM. The TGI [26] was > 100 µM, the GI50 [27] was 23 µM and the TGI [27] was 50 µM. The GI50 [28] was 24.5 µM, the TGI [28] was 98.7 µM and the GI50 [29] was 24.5 µM. For the same molecule, the TGI [29] was 53.8 µM, the GI50 [30] was 41 µM and the TGI [30] was > 100 µM. The GI50 [31] was 38.9 µM, the TGI [31] was > 100 µM and the GI50 [32] was 35.6 µM. For the same molecule, the TGI [32] was > 100 µM, the GI50 [33] was 43.9 µM and the TGI [33] was > 100 µM. It also gave a GI50 [34] of 32.2 µM, a TGI [34] of 89.8 µM and a GI50 [35] of 65.7 µM. For the same molecule, the TGI [35] was > 100 µM, the GI50 [36] was > 100 µM and the TGI [36] was > 100 µM. The GI50 [37] was 74.4 µM, the TGI [37] was > 100 µM and the GI50 [38] was 41.1 µM. For the same molecule, the TGI [38] was > 100 µM, the GI50 [39] was 4.99 µM and the TGI [39] was 26.3 µM. It also gave a GI50 [40] of 21.2 µM, a TGI [40] of 46.1 µM and a GI50 [41] of 56.1 µM. For the same molecule, the TGI [41] was > 100 µM, the GI50 [42] was 22.6 µM and the TGI [42] was 58.5 µM. For the same molecule, the GI50 [43] was 24 µM, the TGI [43] was 51.9 µM and the GI50 [44] was 40.8 µM. For the same molecule, the TGI [44] was > 100 µM, the GI50 [45] was 24.6 µM and the TGI [45] was 61.7 µM. For the same molecule, the GI50 [46] was 46.9 µM, the TGI [46] was > 100 µM and the GI50 [47] was 43.7 µM. The TGI [47] was > 100 µM, the GI50 [48] was > 100 µM and the TGI [48] was > 100 µM. For the same molecule, the GI50 [49] was 94.1 µM, the TGI [49] was > 100 µM and the GI50 [50] was 67.8 µM. The TGI [50] was > 100 µM, the GI50 [51] was 22.3 µM and the TGI [51] was 74.3 µM. The GI50 [52] was 29.2 µM, the TGI [52] was 76.5 µM and the GI50 [53] was 19.2 µM. For the same molecule, the TGI [53] was > 100 µM, the GI50 [54] was > 100 µM and the TGI [54] was > 100 µM. The GI50 [55] was 19.8 µM, the TGI [55] was 41.6 µM and the GI50 [56] was > 100 µM. For the same molecule, the TGI [56] was > 100 µM, the GI50 [57] was > 100 µM and the TGI [57] was > 100 µM. For the same molecule, the GI50 [58] was 19.4 µM and the TGI [58] was > 100 µM.
